The compounds below were run on larvae of brown planthopper (Nilaparvata lugens Stahl) (assay: Test Example 1: insecticidal activity against larvae of brown planthopper). Settings: 120 h, third-instar larvae, 25° C., 5 days after treatment.
Assay type: in vivo
Procedure: Insecticidal activity against larvae of brown planthopper (Nilaparvata lugens Stahl).
Testing method: Five rice seedlings of the 1.5 leaf age were dipped in a test composition of 400 ppm concentration for 30 seconds. After air-drying, the seedlings were placed in a glass tube containing 1 ml of water and infested with five third-instar larvae of brown planthopper. The glass tube was left standing in a constant temperature cabinet at 25° C. and 5 or 7 days after the treatment, dead-and-survival was observed. Mortality was calculated from the results of 3-replication test.

Row | Structure (SMILES) | mortality at 400 ppm
1 | CCCN1C(=O)N(c2ccc(OC)cc2)CSC1=NC1CCCCC1 [Compound 354] | 100%
2 | CC(C)N1C(=O)N(c2cc(Cl)ccc2Cl)CSC1=NC(C)(C)C [Compound 427] | 100%
3 | Cc1ccc(N2CSC(=NC(C)C)N(C(C)C)C2=O)c(C)c1 [Compound 378, 2-isopropylimino-3-isopropyl-5-(2,4-dimethylphenyl)-tetrahydro-1,3,5-thiadiazin-4-one] | 100%
4 | CCN=C1SCN(c2ccc(OC(C)C)cc2)C(=O)N1CC [Compound 371] | 75%
5 | CCC(C)N=C1SCN(c2ccc(Cl)cc2Cl)C(=O)N1C(C)CC (stereo not drawn) [Compound 400] | 100%
6 | CC(C)N=C1SCN(c2ccc(Br)cc2)C(=O)N1C(C)C [Compound 293, 2-Isopropylimino-3-isopropyl-5-(p-bromophenyl)-tetrahydro-1,3,5-thiadiazin-4-one] | 100%
7 | CCN=C1SCN(c2cccc(C(F)(F)F)c2)C(=O)N1CC [Compound 260] | 60%
8 | CCc1ccc(N2CSC(=NC(C)(C)C)N(C(C)CC)C2=O)cc1 (stereo not drawn) [Compound 334] | 100%
9 | CCN1C(=O)N(c2cc(Cl)ccc2Cl)CSC1=NC(C)(C)C [Compound 426] | 70%
10 | CC(C)(C)N=C1NC(=O)N(c2ccc(F)cc2)CS1 [Compound 276] | 100%
11 | CN=C1SCN(c2cccc(C)c2C)C(=O)N1C [Compound 381] | 60%
12 | CCC(C)N1C(=O)N(c2ccccc2C(C)C)CSC1=NC(C)(C)C (stereo not drawn) [Compound 344] | 100%
13 | CC(C)N=C1SCN(c2cccc(Cl)c2Cl)C(=O)N1C(C)C [Compound 402] | 80%
14 | CCCCCCN1C(=O)N(c2ccccc2C)CSC1=NC(C)C [Compound 304] | 100%
15 | Cc1cccc(C)c1N1CSC(=NC(C)(C)C)N(C(C)C)C1=O [Compound 388, 2-t-butylimino-3-isopropyl-5-(2,6-dimethylphenyl)tetrahydro-1,3,5-thiadiazin-4-one] | 100%
16 | CN=C1SCN(c2ccc(C)cc2C)C(=O)N1C [Compound 376] | 60%
17 | Cc1cccc(N2CSC(=NC(C)(C)C)N(C(C)C)C2=O)c1C [Compound 384, 2-t-butylimino-3-isopropyl-5-(2,3-dimethylphenyl)-tetrahydro-1,3,5-thiadiazin-4-one] | 100%
18 | CC(C)N=C1SCN(c2ccc(Cl)c(Cl)c2)C(=O)N1C(C)C [Compound 415] | 100%
19 | CCC(C)N1C(=O)N(c2ccc(Br)cc2)CSC1=NC(C)(C)C (stereo not drawn) [Compound 295] | 100%
20 | COc1ccccc1N1CSC(=NC(C)(C)C)N(C(C)C)C1=O [Compound 360] | 100%
21 | CC(C)Oc1ccc(N2CSC(=NC(C)(C)C)N(C(C)C)C2=O)cc1 [Compound 373] | 80%
22 | Cc1cccc(N2CSC(=NC(C)C)N(C(C)C)C2=O)c1C [Compound 383] | 100%
23 | C=CCN1C(=O)N(c2ccccc2C)CSC1=NC(C)(C)C [Compound 300] | 100%
24 | CC(C)N=C1SCN(c2cccc(Cl)c2)C(=O)N1C(C)c1ccccc1 (stereo not drawn) [Compound 237] | 100%

Row | Structure (SMILES) | mortality at 400 ppm
25 | C=CCN1C(=O)N(c2ccccc2CC)CSC1=NC(C)C [Compound 336] | 100%
26 | CC(C)N1C(=O)N(c2ccc(Br)cc2)CSC1=NC(C)(C)C [Compound 294] | 100%
27 | CCC(C)N1C(=O)N(c2cc(Cl)ccc2Cl)CSC1=NC(C)(C)C (stereo not drawn) [Compound 428] | 100%
28 | CCc1ccccc1N1CSC(=NC)N(C)C1=O [Compound 335] | 80%
29 | CC(C)N1C(=O)N(c2ccc(Cl)c(Cl)c2)CSC1=NC(C)(C)C [Compound 416, 2-t-Butylimino-3-isopropyl-5-(3,4-dichlorophenyl)-tetrahydro-1,3,5-thiadiazin-4-one] | 100%
30 | CCOCCN1C(=O)N(c2ccccc2)CSC1=NC(C)(C)C [Compound 182] | 70%
31 | CC(C)N=C1SCN(c2ccccc2)C(=O)N1c1ccc(F)cc1 [Compound 167] | 70%
32 | COCCN1C(=O)N(c2cccc(Cl)c2)CSC1=NC(C)(C)C [Compound 229] | 100%
33 | CCC(C)N1C(=O)N(c2cccc(C)c2C)CSC1=NC(C)(C)C (stereo not drawn) [Compound 385] | 100%
34 | CCC(C)N=C1SCN(c2ccccc2Cl)C(=O)N1CC(C)C (stereo not drawn) [Compound 253] | 80%
35 | Cc1cc(Cl)ccc1N1CSC(=NC(C)(C)C)N(C(C)C)C1=O [Compound 387, 2-t-butylimino-3-isopropyl-5-(2-methyl-4-chlorophenyl)-tetrahydro-1,3,5-thiadiazin-4-one] | 100%
36 | CCC(C)N1C(=O)N(c2ccc(OC(C)C)cc2)CSC1=NC(C)(C)C (stereo not drawn) [Compound 374, 2-t-butylimino-3-s-butyl-5-(p-isopropoxyphenyl)-tetrahydro-1,3,5-thiadiazin-4-one] | 80%
37 | CC(C)N1C(=O)N(c2ccccc2Cl)CSC1=NC1CCCCC1 [Compound 252, 2-Cyclohexylimino-3-isopropyl-5-(o-chlorophenyl)-tetrahydro-1,3,5-thiadiazin-4-one] | 100%
38 | CC(C)N1C(=O)N(c2cc(Cl)cc(Cl)c2)CSC1=NC(C)(C)CC(C)(C)C [Compound 409] | 60%
39 | CCc1ccccc1N1CSC(=NC(C)(C)C)N(C(C)CC)C1=O (stereo not drawn) [Compound 339, 2-t-butylimino-3-s-butyl-5-(o-ethylphenyl)-tetrahydro-1,3,5-thiadiazin-4-one] | 100%
40 | COCCN1C(=O)N(c2ccccc2)CSC1=NC(C)C [Compound 179] | 90%
41 | C=CCN1C(=O)N(c2ccccc2Cl)CSC1=NC(C)(C)C [Compound 243] | 100%
42 | CC(C)c1ccccc1N1CSC(=NC(C)(C)C)N(C(C)C)C1=O [Compound 343, 2-t-Butylimino-3-isopropyl-5-(o-isopropyl)-phenyl-tetrahydro-1,3,5-thiadiazin-4-one] | 100%
43 | CC(C)N=C1SCN(c2ccccc2C(C)C)C(=O)N1C(C)C [Compound 342] | 100%
44 | CCCCCCN1C(=O)N(c2cccc(Cl)c2)CSC1=NC(C)C [Compound 234] | 100%
45 | CCc1ccccc1N1CSC(=NC(C)(C)C)N(C(C)C)C1=O [Compound 338] | 100%
46 | CC(C)N=C1NC(=O)N(c2ccc(F)cc2)CS1 [Compound 275] | 100%
47 | CCc1ccc(N2CSC(=NC(C)C)N(C(C)C)C2=O)cc1 [Compound 332] | 100%
48 | CC(C)(C)N=C1SCN(c2ccccc2)C(=O)N1Cc1ccccc1 [Compound 159] | 80%

Each compound was assayed on two-spotted spider mite (Tetranychus urticae Koch) (assay: Test Example 3: activity to two-spotted spider mite). Settings: 120 h, 1,000 ppm, 5 days after treatment.
Assay type: in vivo
Text: Activity to two-spotted spider mite (Tetranychus urticae Koch).
Testing method: Two-spotted spider mites were set free on the pot-planted soybean in a greenhouse. On the next day, a test composition of 1,000 ppm concentration was sprayed over the soybean by means of a spray gun. Two days or five days after the treatment, dead-and-survival was inspected to calculate the mortality.

Row | Structure (SMILES) | mortality at 1000 ppm
49 | CCCN1C(=O)N(c2ccc(OC)cc2)CSC1=NC1CCCCC1 [Compound 354] | 100%
50 | CC(C)N1C(=O)N(c2cc(Cl)ccc2Cl)CSC1=NC(C)(C)C [Compound 427] | 100%
51 | Cc1ccc(N2CSC(=NC(C)C)N(C(C)C)C2=O)c(C)c1 [Compound 378, 2-isopropylimino-3-isopropyl-5-(2,4-dimethylphenyl)-tetrahydro-1,3,5-thiadiazin-4-one] | 100%
52 | COc1ccc(N2CSC(=NC(C)C)N(c3ccc(Cl)c(Cl)c3)C2=O)cc1 [Compound 359] | 100%
53 | CC(C)N=C1SCN(c2cc(Cl)cc(Cl)c2)C(=O)N1Cc1ccccc1 [Compound 408, 2-Isopropylimino-3-benzyl-5-(3,5-dichloro-phenyl)-tetrahydro-1,3,5-thiadiazin-4-one] | 100%
54 | CCN=C1SCN(c2ccc(OC(C)C)cc2)C(=O)N1CC [Compound 371] | 100%
55 | CCC(C)N=C1SCN(c2ccc(Cl)cc2Cl)C(=O)N1C(C)CC (stereo not drawn) [Compound 400] | 70%
56 | CC(C)N=C1SCN(c2ccc(Br)cc2)C(=O)N1C(C)C [Compound 293, 2-Isopropylimino-3-isopropyl-5-(p-bromophenyl)-tetrahydro-1,3,5-thiadiazin-4-one] | 100%
57 | CCN=C1SCN(c2cccc(C(F)(F)F)c2)C(=O)N1CC [Compound 260] | 100%
58 | CCN1C(=O)N(c2cc(Cl)ccc2Cl)CSC1=NC(C)(C)C [Compound 426] | 100%
59 | CN=C1SCN(c2cccc(C)c2C)C(=O)N1C [Compound 381] | 70%
60 | CC(C)N=C1SCN(c2cccc(Cl)c2Cl)C(=O)N1C(C)C [Compound 402] | 100%
61 | CCCCCCN1C(=O)N(c2ccccc2C)CSC1=NC(C)C [Compound 304] | 100%
62 | Cc1cccc(C)c1N1CSC(=NC(C)(C)C)N(C(C)C)C1=O [Compound 388, 2-t-butylimino-3-isopropyl-5-(2,6-dimethylphenyl)tetrahydro-1,3,5-thiadiazin-4-one] | 100%
63 | CN=C1SCN(c2ccc(C)cc2C)C(=O)N1C [Compound 376] | 100%
64 | CC(C)N=C1SCN(c2ccc(OC(C)C)cc2)C(=O)N1C [Compound 370, 2-Isopropylimino-3-methyl-5-(p-isopropoxyphenyl)-tetrahydro-1,3,5-thiadiazin-4-one] | 100%
65 | Cc1cccc(N2CSC(=NC(C)(C)C)N(C(C)C)C2=O)c1C [Compound 384, 2-t-butylimino-3-isopropyl-5-(2,3-dimethylphenyl)-tetrahydro-1,3,5-thiadiazin-4-one] | 100%

Row | Structure (SMILES) | mortality at 1000 ppm
66 | CC(C)N=C1SCN(c2ccc(Cl)c(Cl)c2)C(=O)N1C(C)C [Compound 415] | 100%
67 | CCC(C)N1C(=O)N(c2ccc(Br)cc2)CSC1=NC(C)(C)C (stereo not drawn) [Compound 295] | 100%
68 | CC(C)Oc1ccc(N2CSC(=NC(C)(C)C)N(C(C)C)C2=O)cc1 [Compound 373] | 100%
69 | Cc1cccc(N2CSC(=NC(C)C)N(C(C)C)C2=O)c1C [Compound 383] | 100%
70 | C=CCN1C(=O)N(c2ccccc2C)CSC1=NC(C)(C)C [Compound 300] | 90%
71 | CC(C)N=C1SCN(c2cccc(Cl)c2)C(=O)N1C(C)c1ccccc1 (stereo not drawn) [Compound 237] | 100%
72 | CCN1C(=O)N(c2ccc(Cl)c(Cl)c2)CSC1=NCC(C)C [Compound 419] | 100%
73 | C=CCN1C(=O)N(c2ccccc2CC)CSC1=NC(C)C [Compound 336] | 100%
74 | CC(C)N1C(=O)N(c2ccc(Br)cc2)CSC1=NC(C)(C)C [Compound 294] | 100%
75 | CCC(C)N1C(=O)N(c2cc(Cl)ccc2Cl)CSC1=NC(C)(C)C (stereo not drawn) [Compound 428] | 100%
76 | CC(C)N1C(=O)N(c2ccc(Cl)c(Cl)c2)CSC1=NC(C)(C)C [Compound 416, 2-t-Butylimino-3-isopropyl-5-(3,4-dichlorophenyl)-tetrahydro-1,3,5-thiadiazin-4-one] | 100%
77 | CCC(C)N1C(=O)N(c2cccc(C)c2C)CSC1=NC(C)(C)C (stereo not drawn) [Compound 385] | 100%
78 | Cc1cc(Cl)ccc1N1CSC(=NC(C)(C)C)N(C(C)C)C1=O [Compound 387, 2-t-butylimino-3-isopropyl-5-(2-methyl-4-chlorophenyl)-tetrahydro-1,3,5-thiadiazin-4-one] | 100%
79 | CCC(C)N1C(=O)N(c2ccc(OC(C)C)cc2)CSC1=NC(C)(C)C (stereo not drawn) [Compound 374, 2-t-butylimino-3-s-butyl-5-(p-isopropoxyphenyl)-tetrahydro-1,3,5-thiadiazin-4-one] | 100%
80 | CC(C)N1C(=O)N(c2cc(Cl)cc(Cl)c2)CSC1=NC(C)(C)CC(C)(C)C [Compound 409] | 100%
81 | CCN=C1SCN(c2ccccc2C)C(=O)N1CC [Compound 298] | 100%
